In US10150743B2, “Carboxylic acid compounds” (priority 2012, dated 2018):
pIC50: −log10 of the molar value.

Tests used:
Assay type in all cases: cell-based
hERG ion channel = hERG ion channel (Homo sapiens (Human), UniProt Q12809); assay: hERG Analysis - Method 1 (IONWORKS HT, CHO-hERG cells); conditions: ~21° C.
Experimental: The hERG-expressing Chinese hamster ovary K1 (CHO) cells described by (Persson, Carlsson, Duker, & Jacobson, 2005) were grown to semi-confluence at 37° C. in a humidified environment (5% CO2) in F-12 Ham medium containing L-glutamine, 10% foetal calf serum (FCS) and 0.6 mg/mL hygromycin (all available from Sigma-Aldrich). Prior to use, the monolayer was washed using a pre-warmed (37° C.) 3 mL aliquot of Versene 1:5,000 (Invitrogen) After aspiration of this solution the flask was incubated at 37° C. in an incubator with a further 2 mL of Versene 1:5,000 for a period of 6 minutes. Cells were then detached from the bottom of the flask by gentle tapping and 10 mL of Dulbecco's Phosphate-Buffered Saline containing calcium (0.9 mM) and magnesium (0.5 mM) (PBS; Invitrogen) was then added to the flask and aspirated into a 15 mL centrifuge tube prior to centrifugation (50 g, for 4 mins). The resulting supernatant was discarded and the pellet gently re-suspended in 3 mL of PBS. A 0.5 mL aliquot of cell suspension was removed and the number of viable cells (based on trypan blue exclusion) was determined in an automated reader (Cedex; Innovatis) so that the cell re-suspension volume can be adjusted with PBS to give the desired final cell concentration. It is the cell concentration at this point in the assay that is quoted when referring to this parameter. CHO-Kv1.5 cells, which were used to adjust the voltage offset on IONWORKS™ HT, were maintained and prepared for use in the same way.
The principles and operation of this device have been described by (Schroeder, Neagle, Trezise, & Worley, 2003). Briefly, the technology is based on a 384-well plate (PATCHPLATE™) in which a recording was attempted in each well by using suction to position and hold a cell on a small hole separating two isolated fluid chambers. Once sealing had taken place, the solution on the underside of the PATCHPLATE™ was changed to one containing amphotericin B. This permeablises the patch of cell membrane covering the hole in each well and, in effect, allowed a perforated, whole-cell patch clamp recording to be made.
A β-test IONWORKS™ HT from Essen Instrument was used. […] (˜21° C.), as follows. The reservoir in the “Buffer” position was loaded with 4 mL of PBS and that in the “Cells” position with the CHO-hERG cell suspension described above. A 96-well plate (V-bottom, Greiner Bio-one) containing the compounds to be tested (at 3-fold above their final test concentration) was placed in the “Plate 1” position and a PATCHPLATE™ was clamped into the PATCHPLATE™ station. […]

human TLR7 = human TLR7 (Homo sapiens (Human), UniProt Q9NYK1); assay: Human TLR7 assay (SEAP reporter in HEK293); conditions: SEAP induction, overnight incubation at 37° C., 0.1% DMSO; read-out: TLR7 (pEC50) (converted)
From the text: Recombinant human TLR7 was stably expressed in a HEK293 cell line already stably expressing the pNiFty2-SEAP reporter plasmid; integration of the reporter gene was maintained by selection with the antibiotic zeocin. The most common variant sequence of human TLR7 (represented by the EMBL sequence AF240467) was cloned into the mammalian cell expression vector pUNO and transfected into this reporter cell-line. Transfectants with stable expression were selected using the antibiotic blasticidin. In this reporter cell-line, expression of secreted alkaline phosphatase (SEAP) is controlled by an NFkB/ELAM-1 composite promoter comprising five NFkB sites combined with the proximal ELAM-1 promoter. TLR signaling leads to the translocation of NFkB and activation of the promoter results in expression of the SEAP gene. TLR7-specific activation was assessed by determining the level of SEAP produced following overnight incubation of the cells at 37° C. with the standard compound in the presence of 0.1% (v/v) dimethylsulfoxide (DMSO). Concentration dependent induction of SEAP production by compounds was expressed as the concentration of compound which produced half of the maximal level of SEAP induction for that compound (EC50).

human TLR8 = human TLR8 (Homo sapiens (Human), UniProt Q9NR97); assay: Human TLR8 assay (TLR8/NF-kB/SEAPorter HEK 293 Cell Line); conditions: SEAP induction, overnight incubation at 37° C., 0.1% DMSO; read-out: TLR8 pEC50 (converted)
From the text: TLR8/NF-kB/SEAPorter™ HEK 293 Cell Line (Imgenex Corporation) is a stably co-transfected cell line which expresses full-length human TLR8 and the secreted alkaline phosphatase (SEAP) reporter gene under the transcriptional control of an NF-κB response element. TLR8 expression in this cell line has been tested by flow cytometry. Transfectants with stable expression were selected using the antibiotic blasticidin and geneticin. TLR signaling leads to the translocation of NF-κB and activation of the promoter results in expression of the SEAP gene. TLR8-specific activation was assessed by determining the level of SEAP produced following overnight incubation of the cells at 37° C. with the standard compound in the presence of 0.1% (v/v) dimethylsulfoxide (DMSO). Concentration dependent induction of SEAP production by compounds was expressed as the concentration of compound which produced half of the maximal level of SEAP induction for that compound (EC50).

hERG potassium channel = hERG potassium channel (Homo sapiens (Human), UniProt Q12809); assay: hERG Analysis - Method 2 (QPATCH HT, CHO-hERG cells); conditions: half-maximal inhibition concentration, 22±2° C.
Experimental: The hERG potassium current was measured in a hERG-stably-expressing Chinese hamster ovary K1 (CHO) cells. The experiments were performed using an automated planar patch-clamp system QPATCH HT (Sophion Bioscience A/S). The application of pressure for forming gigaseals and whole-cell patch clamp configuration were established using the QPATCH assay software. Patch-clamp experiments were performed in voltage-clamp mode and whole-cell currents were recorded from individual cells. The following stimulation protocol was applied to investigate the effects of compounds on hERG potassium channel: The membrane potential was held at −80 mV and repetitively (every 15 s) depolarized to +20 mV for 5 s after the pulse to −50 mV for 20 ms served to define the baseline, followed by repolarizing step to −50 mV for 5 s to evaluate of the tail current amplitude. Experiments were conducted at room temperature (22±2° C.).
Effects of compounds were determined from cumulative applications of increasing 4 concentrations and calculated as percent of blocked current. The data points were fitted with Hill equation to calculate half-maximal inhibition concentrations. The test solution includes: Extracellular solution (mM): 2 mM of CaCl2, 1 mM of MgCl2, 10 mM of HEPES, 4 mM of KCl, 145 mM of NaCl, and 10 mM of Glucose; and Intracellular solution (mM): 5.4 mM of CaCl2, 1.8 mM of MgCl2, 10 mM of HEPES, 31 mM of KOH, 10 mM of EGTA, 120 mM of KCl, and 4 mM of ATP.

human TLR8, sequence (Q9NR97 27-1041): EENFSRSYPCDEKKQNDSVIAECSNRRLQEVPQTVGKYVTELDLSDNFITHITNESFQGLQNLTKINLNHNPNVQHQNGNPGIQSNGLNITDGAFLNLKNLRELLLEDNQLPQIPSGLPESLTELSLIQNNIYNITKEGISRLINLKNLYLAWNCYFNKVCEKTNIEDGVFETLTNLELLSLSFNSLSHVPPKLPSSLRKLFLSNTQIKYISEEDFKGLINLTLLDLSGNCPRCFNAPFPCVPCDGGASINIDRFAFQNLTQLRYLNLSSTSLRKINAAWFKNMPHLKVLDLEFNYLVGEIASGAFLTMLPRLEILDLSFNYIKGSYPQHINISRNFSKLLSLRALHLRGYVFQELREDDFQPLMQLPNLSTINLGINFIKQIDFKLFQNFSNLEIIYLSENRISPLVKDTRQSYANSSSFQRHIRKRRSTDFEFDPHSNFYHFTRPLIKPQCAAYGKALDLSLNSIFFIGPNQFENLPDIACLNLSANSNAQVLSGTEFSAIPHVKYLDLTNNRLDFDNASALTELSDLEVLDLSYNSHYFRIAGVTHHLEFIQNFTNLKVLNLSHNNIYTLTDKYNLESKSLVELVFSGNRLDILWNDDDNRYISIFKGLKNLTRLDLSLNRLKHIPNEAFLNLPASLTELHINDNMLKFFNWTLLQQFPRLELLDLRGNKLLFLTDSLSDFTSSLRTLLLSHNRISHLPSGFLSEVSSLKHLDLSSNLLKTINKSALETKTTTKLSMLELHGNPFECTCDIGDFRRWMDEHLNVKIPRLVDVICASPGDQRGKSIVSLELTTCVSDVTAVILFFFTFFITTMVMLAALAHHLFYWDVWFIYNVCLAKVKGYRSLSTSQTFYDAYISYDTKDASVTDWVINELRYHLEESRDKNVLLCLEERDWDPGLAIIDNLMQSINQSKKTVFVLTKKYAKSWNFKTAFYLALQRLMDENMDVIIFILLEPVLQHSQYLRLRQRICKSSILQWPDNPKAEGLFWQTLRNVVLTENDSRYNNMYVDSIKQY
human TLR7, sequence (Q9NYK1 27-1049): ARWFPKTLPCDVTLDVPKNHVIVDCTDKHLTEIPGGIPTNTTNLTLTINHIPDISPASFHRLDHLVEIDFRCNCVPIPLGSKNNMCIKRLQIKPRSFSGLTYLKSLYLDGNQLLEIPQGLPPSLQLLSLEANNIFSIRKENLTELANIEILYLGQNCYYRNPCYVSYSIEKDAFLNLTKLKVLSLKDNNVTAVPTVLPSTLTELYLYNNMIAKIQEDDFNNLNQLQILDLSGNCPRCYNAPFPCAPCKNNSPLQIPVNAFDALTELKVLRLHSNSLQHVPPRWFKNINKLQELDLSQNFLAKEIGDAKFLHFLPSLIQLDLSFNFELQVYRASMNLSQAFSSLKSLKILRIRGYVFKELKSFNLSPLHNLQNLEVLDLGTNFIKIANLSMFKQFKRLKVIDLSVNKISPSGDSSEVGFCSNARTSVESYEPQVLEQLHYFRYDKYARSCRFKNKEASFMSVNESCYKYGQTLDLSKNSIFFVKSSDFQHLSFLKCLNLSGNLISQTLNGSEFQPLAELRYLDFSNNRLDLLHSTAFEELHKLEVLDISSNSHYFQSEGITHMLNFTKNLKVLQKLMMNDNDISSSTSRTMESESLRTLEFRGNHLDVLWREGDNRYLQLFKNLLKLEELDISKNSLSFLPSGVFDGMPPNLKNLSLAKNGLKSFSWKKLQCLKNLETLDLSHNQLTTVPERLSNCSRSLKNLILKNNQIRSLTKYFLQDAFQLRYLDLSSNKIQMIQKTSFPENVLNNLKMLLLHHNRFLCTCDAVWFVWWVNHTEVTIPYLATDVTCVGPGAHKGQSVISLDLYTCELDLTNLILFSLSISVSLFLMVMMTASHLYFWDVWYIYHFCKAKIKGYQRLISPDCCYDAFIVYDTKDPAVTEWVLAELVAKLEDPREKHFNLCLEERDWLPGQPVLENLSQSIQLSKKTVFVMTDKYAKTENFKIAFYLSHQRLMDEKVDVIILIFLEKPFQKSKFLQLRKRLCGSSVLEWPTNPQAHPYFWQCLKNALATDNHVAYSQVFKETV
hERG potassium channel, sequence (Q12809 whole entry): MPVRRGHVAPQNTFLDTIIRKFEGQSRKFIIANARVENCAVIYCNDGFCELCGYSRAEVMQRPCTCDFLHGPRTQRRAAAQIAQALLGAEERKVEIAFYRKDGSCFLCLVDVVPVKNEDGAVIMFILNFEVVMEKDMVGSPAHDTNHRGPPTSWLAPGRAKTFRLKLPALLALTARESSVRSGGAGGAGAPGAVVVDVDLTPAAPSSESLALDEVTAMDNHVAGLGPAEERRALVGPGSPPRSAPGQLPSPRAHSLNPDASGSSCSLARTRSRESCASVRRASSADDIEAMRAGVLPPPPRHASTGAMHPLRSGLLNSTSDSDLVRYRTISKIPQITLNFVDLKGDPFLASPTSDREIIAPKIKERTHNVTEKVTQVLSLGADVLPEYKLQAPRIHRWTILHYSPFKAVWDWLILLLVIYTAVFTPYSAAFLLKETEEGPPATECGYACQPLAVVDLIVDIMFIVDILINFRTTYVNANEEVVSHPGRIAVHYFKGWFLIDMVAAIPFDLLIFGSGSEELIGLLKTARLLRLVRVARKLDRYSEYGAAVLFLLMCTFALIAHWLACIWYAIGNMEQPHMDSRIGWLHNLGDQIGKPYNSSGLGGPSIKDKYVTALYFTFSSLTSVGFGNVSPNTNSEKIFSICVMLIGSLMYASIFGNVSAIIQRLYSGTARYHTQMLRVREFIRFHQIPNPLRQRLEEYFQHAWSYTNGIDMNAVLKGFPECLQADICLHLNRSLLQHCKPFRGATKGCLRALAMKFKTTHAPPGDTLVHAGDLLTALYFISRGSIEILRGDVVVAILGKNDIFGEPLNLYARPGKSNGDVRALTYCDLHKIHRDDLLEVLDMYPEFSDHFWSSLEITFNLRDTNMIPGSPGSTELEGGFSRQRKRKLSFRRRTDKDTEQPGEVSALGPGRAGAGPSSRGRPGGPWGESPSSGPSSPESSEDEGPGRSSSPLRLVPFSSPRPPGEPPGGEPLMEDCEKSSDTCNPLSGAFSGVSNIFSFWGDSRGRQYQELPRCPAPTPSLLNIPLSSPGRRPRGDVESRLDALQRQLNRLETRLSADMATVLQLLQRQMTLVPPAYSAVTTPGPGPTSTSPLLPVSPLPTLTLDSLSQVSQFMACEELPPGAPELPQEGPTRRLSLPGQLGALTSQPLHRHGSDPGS
hERG ion channel, sequence (Q12809 whole entry): as above

CCC[C@@H](CCO)Nc1nc(N)nc(C)c1Cc1ccc(CN(CC)CC(=O)O)cc1OC [Example 1, (S)-2-((4-((2-amino-4-(1-hydroxyhexan-3-ylamino)-6-methylpyrimidin-5-yl)methyl)-3-methoxybenzyl)(ethyl)amino)acetic acid]
pIC50 (hERG ion channel): < 4.48 | EC50 (human TLR7): 158 nM | EC50 (human TLR8): > 10000 nM | pIC50 (hERG potassium channel): < 5.00

CCCCNc1nc(N)nc(C)c1Cc1ccc(CN(CC)CC(=O)O)cc1OC [Example 2, 2-((4-((2-amino-4-(butylamino)-6-methylpyrimidin-5-yl)methyl)-3-methoxybenzyl) (ethyl)amino)acetic acid]
EC50 (human TLR7): 794 nM | EC50 (human TLR8): > 10000 nM | pIC50 (hERG potassium channel): < 5.00

CCC[C@@H](CCO)Nc1nc(N)nc(C)c1Cc1ccc(CN(CC)CCC(=O)O)cc1OC [Example 5, (S)-3-((4-((2-amino-4-(1-hydroxyhexan-3-ylamino)-6-methylpyrimidin-5-yl)methyl)-3-methoxybenzyl)(ethyl)amino)propanoic acid]
pIC50 (hERG ion channel): < 4.48 | EC50 (human TLR7): 50.1 nM | EC50 (human TLR8): > 10000 nM | pIC50 (hERG potassium channel): < 5.00

CCC[C@@H](CCO)Nc1nc(N)nc(C)c1Cc1ccc(CN(CCC(=O)O)CC(F)F)cc1OC [Example 6, (S)-3-((4-((2-amino-4-(1-hydroxyhexan-3-ylamino)-6-methylpyrimidin-5-yl)methyl)-3-methoxybenzyl)(2,2-difluoroethyl)amino)propanoic acid]
pIC50 (hERG ion channel): < 4.48 | EC50 (human TLR7): 251 nM | EC50 (human TLR8): > 10000 nM | pIC50 (hERG potassium channel): < 5.00

CCC[C@@H](CCO)Nc1nc(N)nc(C)c1Cc1ccc(CN(CC(=O)O)C(C)=O)cc1OC [Example 7, (S)-2-(N-(4-((2-amino-4-(1-hydroxyhexan-3-ylamino)-6-methylpyrimidin-5-yl)methyl)-3-methoxybenzyl)acetamido)acetic acid]
EC50 (human TLR7): 251 nM | EC50 (human TLR8): > 10000 nM | pIC50 (hERG potassium channel): < 5.00

CCC[C@@H](CCO)Nc1nc(N)nc(C)c1Cc1ccc(OCCCN2CCC[C@@H]2C(=O)O)cc1OC [Example 8, (R)-1-(3-(4-((2-amino-4-((S)-1-hydroxyhexan-3-ylamino)-6-methylpyrimidin-5-yl)methyl)-3-methoxyphenoxy)propyl)pyrrolidine-2-carboxylic acid]
EC50 (human TLR7): 126 nM | EC50 (human TLR8): > 10000 nM | pIC50 (hERG potassium channel): < 5.00

CCC[C@@H](CCO)Nc1nc(N)nc(C)c1Cc1ccc(OCCCN2CCC[C@H]2C(=O)O)cc1OC [Example 9, (S)-1-(3-(4-((2-amino-4-((S)-1-hydroxyhexan-3-ylamino)-6-methylpyrimidin-5-yl)methyl)-3-methoxyphenoxy)propyl)pyrrolidine-2-carboxylic acid]
EC50 (human TLR7): 200 nM | EC50 (human TLR8): > 10000 nM | pIC50 (hERG potassium channel): < 5.00

CCC[C@@H](CCO)Nc1nc(N)nc(C)c1Cc1ccc(OCCCN(CC)CCC(=O)O)cc1OC [Example 10, (S)-3-((3-(4-((2-amino-4-(1-hydroxyhexan-3-ylamino)-6-methylpyrimidin-5-yl)methyl)-3-methoxyphenoxy)propyl)(ethyl)amino)propanoic acid]
EC50 (human TLR7): 251 nM | EC50 (human TLR8): > 10000 nM

CCC[C@@H](CCO)Nc1nc(N)nc(C)c1Cc1ccc(OCCCN(CC)CC(=O)O)cc1OC [Example 11, (S)-2-((3-(4-((2-amino-4-(1-hydroxyhexan-3-ylamino)-6-methylpyrimidin-5-yl)methyl)-3-methoxyphenoxy)propyl)(ethyl)amino)acetic acid]
EC50 (human TLR7): 200 nM | EC50 (human TLR8): > 10000 nM

CCC[C@@H](CCO)Nc1nc(N)nc(C)c1Cc1ccc(OCCCN(CC(=O)O)CC(F)F)cc1OC [Example 12, (S)-2-((3-(4-((2-amino-4-(l-hydroxyhexan-3-ylamino)-6-methylpyrimidin-5-yl)methyl)-3-methoxyphenoxy)propyl)(2,2-difluoroethyl)amino)acetic acid]
EC50 (human TLR7): 100 nM | EC50 (human TLR8): > 10000 nM

CCC[C@@H](CCO)Nc1nc(N)nc(C)c1Cc1ccc(CN2CCC[C@@H]2C(=O)O)cc1OC [Example 13, (R)-1-(4-((2-amino-4-((S)-1-hydroxyhexan-3-ylamino)-6-methylpyrimidin-5-yl)methyl)-3-methoxybenzyl)pyrrolidine-2-carboxylic acid]
EC50 (human TLR7): 200 nM | EC50 (human TLR8): > 10000 nM

CCC[C@@H](CCO)Nc1nc(N)nc(C)c1Cc1ccc(Cn2cncc2C(=O)O)cc1OC [Example 14, (S)-1-(4-((2-amino-4-(1-hydroxyhexan-3-ylamino)-6-methylpyrimidin-5-yl)methyl)-3-methoxybenzyl)-1H-imidazole-5-carboxylic acid]
EC50 (human TLR7): 2000 nM | EC50 (human TLR8): > 10000 nM
